# Values of other authors, collected in patent US20050107349A1, “Method for the treatment or prevention of respiratory disorders with a cyclooxygenase-2 inhibitor in combination with a muscarinic receptor antagonist and compositions therewith” (Pharmacia Corporation, priority 2003, published 2005).
# Legend:
# [1] = tested on: subjects suffering from asthma
structure (smiles),measurement,setting,value
"C[N+]1(C)[C@@H]2C[C@@H](OC(=O)C(O)(c3cccs3)c3cccs3)C[C@H]1[C@@H]1O[C@@H]12 [tiotropium, (1α, 2β, 4β, 5α, 7β)-7-[(hydroxy-2-thienylacetyl)oxy]-9,9-dimethyl-3-oxa-9-azoniatricyclo [3.3.1.0^2,4]nonane bromide monohydrate]",bronchodilation,[1],prolonged bronchodilation
same,dose-dependent and prolonged bronchodilator effect (duration),patients with COPD,≤ 48 h
